Target: T1, GBA2 (Homo sapiens, UniProt Q9HCG7)
T1 sequence (Q9HCG7 1-927): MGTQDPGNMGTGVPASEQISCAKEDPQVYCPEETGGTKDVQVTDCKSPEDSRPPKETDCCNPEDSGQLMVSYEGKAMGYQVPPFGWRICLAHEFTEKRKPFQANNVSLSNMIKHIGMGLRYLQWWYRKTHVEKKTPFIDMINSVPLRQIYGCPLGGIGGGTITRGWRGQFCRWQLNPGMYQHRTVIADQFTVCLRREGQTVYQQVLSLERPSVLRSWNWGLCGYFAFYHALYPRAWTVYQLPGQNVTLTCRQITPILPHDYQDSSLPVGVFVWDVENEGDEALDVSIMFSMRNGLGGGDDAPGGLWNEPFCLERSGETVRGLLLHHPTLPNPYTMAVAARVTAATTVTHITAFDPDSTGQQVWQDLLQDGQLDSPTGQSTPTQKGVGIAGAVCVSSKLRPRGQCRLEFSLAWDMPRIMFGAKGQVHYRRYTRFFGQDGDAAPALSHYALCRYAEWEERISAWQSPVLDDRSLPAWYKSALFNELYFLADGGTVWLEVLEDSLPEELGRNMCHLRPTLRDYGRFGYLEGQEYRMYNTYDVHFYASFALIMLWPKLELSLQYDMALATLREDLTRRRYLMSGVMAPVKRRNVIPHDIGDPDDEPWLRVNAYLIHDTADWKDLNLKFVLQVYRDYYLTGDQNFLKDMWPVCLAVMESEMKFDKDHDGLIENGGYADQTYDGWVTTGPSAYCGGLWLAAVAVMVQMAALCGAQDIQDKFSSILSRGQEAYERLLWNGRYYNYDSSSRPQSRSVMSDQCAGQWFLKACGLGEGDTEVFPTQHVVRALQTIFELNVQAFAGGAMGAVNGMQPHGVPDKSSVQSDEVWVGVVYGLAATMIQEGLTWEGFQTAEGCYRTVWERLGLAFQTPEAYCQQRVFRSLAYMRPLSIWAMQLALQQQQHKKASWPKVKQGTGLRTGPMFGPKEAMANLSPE
Assay: In situ labelling of wild-type HEK293T cells, GBA2
Type: cell-based
Set-up: endogenous in cells; host or cells: wild-type HEK293T
Details: wild-type HEK293T intact cells; 24 h incubation
Procedure: Importantly, the GBA2 selectivity of β-D-Araf ABPs 3–5 was maintained during in situ labelling of wild-type HEK293T cells (ESI Fig. S9 ^†). […] Even after 24 h incubation, similar results were obtained: ABP 4 selectively labelled GBA2 at 10 nM, with only slight concomitant GBA1 labelling at concentrations higher than 100 nM (ESI Fig. S10 ^†). Selective GBA2 labelling by ABP 3 and 4 finally was also observed in human retinal pigment epithelial-1 cells (Fig. 5C).
Figure S9. Fluorescent gel images of in situ labelling of wild-type HEK293T cells by β-D-Araf aziridine ABPs 3-5.
β-D-Araf ABPs were firstly incubated with intact wild-type HEK293T cells for 1 or 2.5 h (1st incubation) and then cells were harvested. […]
2.12 Reactivity of β-D-Araf aziridines towards GBA2 orthologue in other species β-D-Araf aziridine ABP 3-5 or ABP 7 was incubated with homogenates of zebrafish (Danio rerio) larvae or mice brain for 1 h at 37 °C. […] The zebrafish homogenates were passed through a desalting column (in the same way as described for the irreversibility evaluation above) to remove interference from biological pigments when scanning at λEX 473 nm and λEM ≥ 510 nm for BODIPY green fluorescence. […]

Structure (SMILES): COc1ccc(C2=[N+]3C(=C(CCCCc4cn(CCCCCCCCN5[C@@H]6[C@H](CO)[C@@H](O)[C@H](O)[C@@H]65)nn4)c4ccc(-c5ccc(OC)cc5)n4[B-]3(F)F)C=C2)cc1 (stereo partly shown) [ABP 4]
- Concentration at which GBA2 is selectively labelled in situ: 10 nM
